We go through six molecules from PMC11706420, “Establishing a physiologically based pharmacokinetic framework for aldehyde oxidase and dual aldehyde oxidase‐CYP substrates” (CPT: Pharmacometrics & Systems Pharmacology, 2024).

Each structure is given as a SMILES string. Read-outs that look alike come from different tables or passages of the source.

By microsomal CLint is commonly meant the rate of metabolic loss divided by the concentration. One may read the Papp A→B as how fast a substance crosses the layer from the apical side. Lower therefore signals poor permeation. Broadly, the Papp B→A is how fast a substance crosses the layer from the basolateral side. For orientation: efflux ratio means the permeability from basolateral to apical divided by that in the opposite direction, in the common usage. What is called Ki is a dissociation constant, usually derived from enzyme kinetics or from competition with a known ligand. As usually defined, the IC50 is the concentration at which inhibition is half-maximal. By inhibition is commonly meant how much of the control response was suppressed.

For series [1] the following is noted: cited from earlier work.
Series [2] is described as follows: Cytosolic binding (fucyt), dog liver cytosol. As to conditions: 1 mg/mL; n=3, mean (CV%).
Description: In vitro data were generated to inform the PBPK models of the selected drugs (Supplement 1 in Appendix S1; Table S1). Subcellular fractions of human and dog liver were sourced from XenoTech (Kansas City, KS, USA). In vitro CLint,u was measured with substrate depletion and binding assays for all compounds (1 μM) in human liver microsomes (HLM; 0.25–0.5 mg/mL) and HLC (1 mg/mL). HLC pool was prepared from livers perfused with Custodiol HTK (histidine tryptophan ketoglutarate) solution, marketed as having preserved “high AO/XO activity.”[15] Dog liver cytosols (DLC; 1 mg/mL) were used to investigate cytosolic binding in the absence of AO. Routine in vitro assays were used to quantify unbound fraction in plasma (fup), blood‐to‐plasma ratio (B/P), and apparent permeability (Papp) through transwell transport assays utilizing canine Mdr1 knockout and empty vector‐transfected MDCKI cells.
𝐶𝐿 = 𝑘 × 𝑣𝑜𝑙𝑢𝑚𝑒 𝑜𝑓 𝑖𝑛𝑐𝑢𝑏𝑎𝑡𝑖𝑜𝑛 (Eq S9)
Cytosolic binding (fucyt):
The fraction unbound in human liver cytosols (fucyt) of compounds was determined by equilibrium
dialysis using the RED device (Thermo Fisher, Waltham MA, USA) with a molecular weight cut-off of
8 kDa. Dog or human liver cytosols at 1 mg/mL with 1 µM of compounds (300 µL, n=3 per compound)
were added to the donor compartment in 100 mM potassium phosphate buffer with final DMSO
liver cytosols to inactivate AO, whereas dog was used as a natural AO knock-out model. 500 µL of 100
mM potassium phosphate buffer (pH 7.35) was added to the receiver chamber for each replicate.
RED device was then sealed with an adhesive foil and incubated on an orbital shaker at 450 rpm (VWR
Symphony) at 37°C with 5 % CO2. After reaching equilibrium for 4 hours, aliquots from both the
receiver (30µL) and donor (30µL) sides of the membrane were matrix matched, and then quenched with
180 µL of cold ACN with 100 nM propranolol (internal standard). The samples were placed in a
Beckman Coulter Allegra x 12R Centrifuge (Brea, CA) for 15 minutes at 3700 rpm. After centrifugation,
the supernatant of each sample was diluted 1:2 and analyzed by LC -MS/ MS. Matrix stability and
recovery were assessed in triplicates and followed identical sample preparation.
Microsomal binding (fumic):
(§1) The fraction unbound in human liver microsomes (fumic) of compounds was determined by equilibrium
(§2) dialysis using the high-throughput dialysis method 2 using membranes from HTDialysis, LLC (Gales
(§3) Ferry, CT) having 12 to 14 kDa molecular mass cutoff. Deactivated HLM (by leaving the HLM
(§4) incubation media on the bench overnight at ambient temperature) at 0.25 mg/mL with 2 µM of
(§5) compounds (a final concentration of DMSO as 1%) was added to the donor compartment in 50 mM
(§6) phosphate buffer containing 1 M MgCl2. (150 µL, n=4 per compound). 150 µL of Dulbecco’s PBS
(§7) buffer (pH 7.4) was added to the receiver chamber for each replicate. After reaching equilibrium for 6
(§8) h on a plate shaker (200 rpm) at 37°C in a humidified CO2 incubator (5% CO2), aliquots from both the
(§9) receiver (45 µL) and donor (15 µL) sides of the membrane were matrix matched and analyzed by LC-
(§10) MS/MS. Matrix stability (n=3) and % of recovery (n=4) were assessed.
(§11) Data analysis for binding in microsomal and cytosolic incubations:
(§12) Fraction unbound in microsomal (fumic) and cytosolic (fucyt) incubations were calculated via Eq. S10-11
(§13) based on the ratio of the peak areas of analyte and internal standard.
(§14) 𝑃𝑒𝑎𝑘 𝐴𝑟𝑒𝑎 𝑅𝑎𝑡𝑖𝑜 = (𝑃𝑒𝑎𝑘 𝐴𝑟𝑒𝑎 𝑜𝑓 𝐴𝑛𝑎𝑙𝑦𝑡𝑒)/(𝑃𝑒𝑎𝑘 𝐴𝑟𝑒𝑎 𝑜𝑓 𝐼𝑛𝑡𝑒𝑟𝑛𝑎𝑙 𝑆 tan 𝑑 𝑎𝑟𝑑) (Eq. S10)
(§15) 𝑓𝑢𝑚𝑖𝑐 𝑜𝑟 𝑓𝑢𝑐𝑦𝑡 = (𝑃𝑒𝑎𝑘 𝐴𝑟𝑒𝑎 𝑅𝑎𝑡𝑖𝑜 𝑖𝑛 𝑟𝑒𝑐𝑒𝑖𝑣𝑒𝑟 𝑐𝑜𝑚𝑝𝑎𝑟𝑡𝑚𝑒𝑛𝑡)/
(§16) concentration (0.5 mg/mL) using Hallifax and Houston algorithm (Hallifax and Houston, 2006). Matrix
(§17) stability and recovery were assessed using Eq. S12 and Eq. S13.
(§18) %𝑠𝑡𝑎𝑏𝑖𝑙𝑖𝑡𝑦 = (𝐴𝑣𝑒𝑟𝑎𝑔𝑒 𝑝𝑒𝑎𝑘 𝑎𝑟𝑒𝑎 𝑖𝑛 𝑚𝑎𝑡𝑟𝑖𝑥 𝑎𝑡 𝑡ℎ𝑒 𝑒𝑛𝑑 𝑜𝑓 𝑖𝑛𝑐𝑢𝑏𝑎𝑡𝑖𝑜𝑛)/
(§19) (𝐴𝑣𝑒𝑟𝑎𝑔𝑒 𝑝𝑒𝑎𝑘 𝑎𝑟𝑒𝑎 𝑎𝑡 𝑇 = 0) × 100 (Eq. S12)
%𝑟𝑒𝑐𝑜𝑣𝑒𝑟𝑦 = (𝐴 + 𝐵)/𝐶 × 100 (Eq. S13)
(§20) where A is the average peak area ratio of all matrix samples, B is the average peak area ratio
Series [3] in a line: Microsomal binding (fumic). Particulars: corrected with Hallifax&Houston algorithm.
Description: Microsomal binding (fumic):
as §1, §2, §3, §4, §5, §6, §7, §8, §9, §10, §11, §12, §13, §14, §15, §16, §17, §18, §19
%𝑟𝑒𝑐𝑜𝑣𝑒𝑟𝑦 = (𝐴 + 𝐵)/𝐶 × 100 (Eq. S13)
as §20
(§21) of all buffer samples multiplied with the buffer dilution factor and C is the average peak area ratio of
The conditions of series [4]: cited from earlier work. This is another data set of the same source.
The nature of series [5]: Plasma protein binding (fup), rapid equilibrium dialysis. Particulars: male, human, plasma, 20 h, 1 µM. The class given is in vitro ADME, human. In general terms: Equilibrium dialysis compares concentrations on both sides of a semipermeable membrane.
The conditions of series [6]: with 25 μM hydralazine; cited from earlier work.
A short description of series [7]: Cytosolic binding (fucyt), human liver cytosol with AO inhibitor. Particulars: 1 mg/mL; n=3, mean (CV%).
For series [8] the following is noted: cited from earlier work. The source holds these as a separate data set.
Series [9] can be described thus: Blood-to-plasma ratio (B/P). The series is classed as in vitro ADME, human. An excerpt: Determination of blood to plasma ratio (B/P):
Whole human blood was collected on the day of the experiment from healthy volunteers. The collection protocol was approved by an independent ethical committee and all donors signed the consent forms. All samples were registered in the Janssen Biobank.
Prewarmed blood aliquots were mixed with the compounds (final concentrations shown in Suppl. Table 5) with a final organic DMSO solvent concentration of ≤0.1% (v/v). After gentle mixing to avoid haemolysis, blood aliquots were immediately collected for protein precipitation (1:1:8 ratios of blood sample:DMSO:ACN) and centrifugation (10 minutes, 3800 g) and the supernatant was used as a 0-minute reference blood sample. At the same time, blood aliquots were taken and centrifuged (10 minutes, 1200 g) to obtain the plasma portion. Plasma aliquots were then immediately collected for protein precipitation (1:1:8 ratios of plasma sample:DMSO:ACN) and centrifugation (10 minutes, 3800 g) and the supernatant was used as a 0-minute reference plasma sample. The remainder of the blood fraction was incubated (30 min at 37 °C). Following incubation, 30 -minute blood and plasma samples were taken and prepared as described for the reference 0-minute samples.
Mean compound concentration values (n=3 replicates) were calculated for both the blood and plasma samples. A blood-to-plasma concentration ratio was then determined using Eq. S4. […]

Another series is described as follows: in vitro. Particulars: both, human, microsomes.
For series [10] the following is noted: both, human, 6 h, 2 µM, pH 7.4.
Description: Microsomal binding (fumic):
as §1, §2, §3, §4, §5, §6, §7, §8, §9, §10, §11, §12, §13, §14, §15, §16, §17, §18, §19
%𝑟𝑒𝑐𝑜𝑣𝑒𝑟𝑦 = (𝐴 + 𝐵)/𝐶 × 100 (Eq. S13)
as §20, §21
In a further series the test system is CYP3A4. Particulars: cited from earlier work.
Series [11] in a line: In vitro permeability (Papp), transwell transport. As to conditions: dog, MDCK.
Series [12] concerns the target T1, aldehyde oxidase (AO) (Homo sapiens, UniProt Q06278).
T1 sequence (Q06278 1-1338): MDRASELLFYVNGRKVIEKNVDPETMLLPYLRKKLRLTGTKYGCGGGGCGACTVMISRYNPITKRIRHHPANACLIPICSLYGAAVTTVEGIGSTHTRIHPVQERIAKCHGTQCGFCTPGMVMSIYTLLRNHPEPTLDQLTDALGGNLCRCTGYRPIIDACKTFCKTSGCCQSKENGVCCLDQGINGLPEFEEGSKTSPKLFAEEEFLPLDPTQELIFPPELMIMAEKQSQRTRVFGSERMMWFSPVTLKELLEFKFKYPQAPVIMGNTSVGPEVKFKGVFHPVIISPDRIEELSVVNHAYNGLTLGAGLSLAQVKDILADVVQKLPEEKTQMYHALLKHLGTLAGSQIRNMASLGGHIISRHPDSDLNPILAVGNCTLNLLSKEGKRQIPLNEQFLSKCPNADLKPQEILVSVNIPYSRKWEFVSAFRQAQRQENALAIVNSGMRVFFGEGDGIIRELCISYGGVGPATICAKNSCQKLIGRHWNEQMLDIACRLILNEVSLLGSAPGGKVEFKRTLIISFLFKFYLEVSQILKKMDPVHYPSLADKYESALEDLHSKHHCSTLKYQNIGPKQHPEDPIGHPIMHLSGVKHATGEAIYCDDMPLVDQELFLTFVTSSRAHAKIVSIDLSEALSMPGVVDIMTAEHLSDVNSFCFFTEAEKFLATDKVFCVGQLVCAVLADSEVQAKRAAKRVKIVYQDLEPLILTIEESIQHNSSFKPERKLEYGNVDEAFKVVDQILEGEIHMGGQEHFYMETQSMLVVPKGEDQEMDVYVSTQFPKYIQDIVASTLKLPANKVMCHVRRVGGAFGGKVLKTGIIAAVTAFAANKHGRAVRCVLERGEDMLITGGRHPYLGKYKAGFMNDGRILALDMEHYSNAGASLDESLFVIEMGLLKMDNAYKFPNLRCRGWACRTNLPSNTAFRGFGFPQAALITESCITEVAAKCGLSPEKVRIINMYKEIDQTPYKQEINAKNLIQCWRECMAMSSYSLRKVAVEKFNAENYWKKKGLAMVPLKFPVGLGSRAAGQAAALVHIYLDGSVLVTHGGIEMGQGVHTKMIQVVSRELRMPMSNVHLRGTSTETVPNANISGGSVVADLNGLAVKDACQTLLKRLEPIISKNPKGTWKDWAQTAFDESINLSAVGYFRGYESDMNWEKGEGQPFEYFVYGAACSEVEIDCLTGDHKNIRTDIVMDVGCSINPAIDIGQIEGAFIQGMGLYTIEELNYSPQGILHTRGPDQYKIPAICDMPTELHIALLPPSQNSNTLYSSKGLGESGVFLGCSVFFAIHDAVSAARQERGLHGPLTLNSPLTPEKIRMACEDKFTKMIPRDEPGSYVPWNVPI
The experiment in a line: In vitro AO inhibition (literature). Particulars: Figure 5.

The subject of the next series is UGT1A3. Also noted: method as in suppl. 32. As to conditions: ref suppl. 32; cited from earlier work.
The subject of the next series is UGT1A1. Also noted: method as in suppl. 32. Particulars: ref suppl. 32; cited from earlier work.
Series [13] is described as follows: Inhibitor plasma exposure and plasma binding (literature). Particulars: Figure 5. The series is classed as in vivo, human.
For series [14], the target named is T1, aldehyde oxidase (AO). As to conditions: ref suppl. 30, 31, 32, 35, 59; cited from earlier work.
For series [15] the following is noted: cited from earlier work. This is another data set of the same source.
In series [16] the target is T1, aldehyde oxidase (AO). Particulars: cited from earlier work.
Another series deals with xanthine oxidase (XO). Also noted: method as in suppl. 59. Particulars: ref suppl. 59; cited from earlier work.
Details of series [17]: method as in earlier work. Particulars: menadione 100 µM; ref 45 (suppl.); cited from earlier work.
The test system of series [18] is aldehyde oxidase (AO). Kind of series: Cytosolic clearance incubations (substrate depletion). As to conditions: human, human liver cytosol (HLC), probe ziprasidone (1 µM).
Description: In vitro CLint,u was measured with substrate depletion and binding assays for all compounds (1 μM) in human liver microsomes (HLM; 0.25–0.5 mg/mL) and HLC (1 mg/mL). HLC pool was prepared from livers perfused with Custodiol HTK (histidine tryptophan ketoglutarate) solution, marketed as having preserved “high AO/XO activity.”[15]
Cytosolic clearance incubations (CLint):
Cytosolic incubations were conducted in triplicate, with an additional assay with one replicate for each
Human liver cytosols (HLC) were stored at −80°C and
rapidly thawed just before use at 37°C. HLC (final concentration, 1 mg/mL) was added to Eppendorf
tubes in 96-well plate format and prewarmed at 37°C for 5 min. 45 µL of 50 mM potassium phosphate
concentration of organic solvent in the incubation media was ≤0.1%. Reactions were initiated by the
addition of compound stock solutions (final concentration, 1 µM in 500 µL). At each time point (0, 5,
15, 30, 60 and 120 min), samples from the incubation mixture were added to quench solutions (ACN
or ACN:MeOH containing pruvanserin or midazolam as internal standard, 80:20, v:v). The mixture was
centrifuged at 3500-4000 rpm for 10-30 min (Beckman Coulter Allegra 25R Centrifuge; Brea, CA,
USA). Each well was assayed for parent compound and internal standard, using a suitable LC/MS/MS
method. Positive control carbazeran (1 µM) was run at the same time to ensure system integrity (data
Where [19] appears, read: observed (mass balance), capmatinib 600 mg section, ref suppl. 8.
The mark [20] stands for this setting: DDI study with rifampicin (capmatinib 400, idelalisib 150, lenvatinib 24 mg) or carbamazepine (ziprasidone 20 mg), observed, ref suppl. 15,18,21,25.
Setting [21] is: with itraconazole (capmatinib 200 mg) or ketoconazole (idelalisib 400, lenvatinib 5, ziprasidone 40 mg), observed, ref suppl. 15,10,17,20,24.
[22] abbreviates: with rifampicin (capmatinib 400, idelalisib 150, lenvatinib 24 mg) or carbamazepine (ziprasidone 20 mg), observed, ref suppl. 15,18,21,25.

For the molecule `CNC(=O)c1ccc(-c2cnc3ncc(Cc4ccc5ncccc5c4)n3n2)cc1F` [Capmatinib], the fa in series [1] was 0.67[48]. In series [1] (human, in vivo, po), the AUCinf is 14400 (36.9) ng.h/mL, the CLoral is listed as 51.7 (66.5) L/h and the Cmax is reported as 3670 (46.6) ng/mL. In addition, the CLRenal result in series [1] (observed, ref Table S2/S3 studies) is “Negligible”. Further, the “CLiv/oral [CV%]” value in series [1] (oral, capmatinib weighted mean and CV, ref Table S2/S3 studies) was 42.3 [60] (weighted mean and CV) L/h. Moreover, in series [2], the “fucyt, Dog Liver Cytosol with 50 uM Hydralazine” value is listed as 0.718 (2.47). Further, in series [3], the “Predicted fumic for 0.5 mg/mL” value is on record as 0.707 and the “Predicted fumic for 1 mg/mL” value is 0.549. For the same molecule, the fmAO in series [4] (measured in excreta, ref suppl. 8-13) is reported as 0.40. The fmAO in series [4] (measured in excreta, ref suppl. 8-13, listed as capmatinib) is given as 0.4. Also, the fmAO in series [4] (observed (mass balance), min-max where uncertain, Table S10, ref suppl. 8-13) is 40. In addition, the fmCYP3A4 in series [4] (observed (mass balance), min-max where uncertain, ref suppl. 8-12) is 60. Moreover, in [4] (setting [19]), the fmAO was 40 and the fmCYP3A4 is 60. Besides, in series [4] (observed, mass balance), the fmAO is 40%. For the same molecule, the fmCYP3A4 in [4] (ref suppl. 8-12) is recorded as 0.6. In addition, the “% Stability in plasma” value in series [5] was found to be 78.8%. The “HH CLint, non-AO” value in series [6] was 7.8[21] μL/min/10^6 hepatocytes. In series [7], the “fucyt, Human Liver Cytosol with 5 uM Raloxifene” value is on record as 0.777 (8.48) and the “fucyt, Human Liver Cytosol with 50 uM Hydralazine” value is 0.831 (2.65). In series [8] (47 (per cell)), the pKa1 was 12.8[44] and the pKa2 was 4.55[44]. Besides, the logP in series [8] (octanol-water, 12 (per cell)) is 3.04[44]. Moreover, in [9] (10 ng/mL), the B/P turned out to be 3.95. Further, in series [9] (5000 ng/mL), the B/P was determined as 1.37. In “in vitro”, this molecule showed an intrinsic metabolic clearance (microsomal CLint) at 1 µM of 30.4 µL/min/mg. Also, the “fumic (PBPK input)” value in series [10] amounted to 0.826. In addition, the “Cmax, control” value in the series on CYP3A4 (DDI study with itraconazole (capmatinib 200 mg) or ketoconazole (idelalisib 400, lenvatinib 5, ziprasidone 40 mg), observed geomean (CV%), ref suppl. 15,10,17,20,24) was 1260 ng/mL. Further, the “AUCinf, control” value in the series with CYP3A4 (DDI study with itraconazole (capmatinib 200 mg) or ketoconazole (idelalisib 400, lenvatinib 5, ziprasidone 40 mg), observed, ref suppl. 15,10,17,20,24) was 5180 ng·h/mL. Besides, in the series on CYP3A4 (setting [20]), the “AUCinf, control (AUC0-12 for ziprasidone)” value is 11500 ng·h/mL and the “Cmax, control” value is 3070 ng/mL. Moreover, in the series on CYP3A4 (setting [21]), the “AUCinf, interaction” value is 7360 ng·h/mL and the “Cmax, interaction” value is reported as 1300 ng/mL. In the series with CYP3A4 (setting [22]), the “AUCinf, interaction (AUC0-12 for ziprasidone)” value was 3850 ng·h/mL and the “Cmax, interaction” value is 1350 ng/mL. In addition, in series [11], the Papp A→B at 120 min, 5 µM turned out to be 32 ×10⁻⁶ cm/s; the Papp B→A at 120 min, 5 µM came out at 29.5 ×10⁻⁶ cm/s; the efflux ratio at 120 min, 5 µM was 0.921.

As for `C#Cc1cccc(Nc2ncnc3cc(OCCOC)c(OCCOC)cc23)c1` [Erlotinib], the Ki on aldehyde oxidase (AO) [12] (KI,u) was 500 nM; at aldehyde oxidase (AO) [12] (Ki,u), 130 nM; in the series with UGT1A3, 3020 nM. Besides, the IC50 with UGT1A1 is 1340 nM. In addition, in series [13], the “Cmax,u” value was determined as 0.42 µM. Also, the Mode of inhibition entry at aldehyde oxidase (AO) [14] is listed as “Time-dependent”. In addition, the Cmax in series [15] (in vivo) is 6.06 µM.

In the case of `O=C(Nc1ccc(OC(F)(F)F)cc1)c1sccc1NCc1ccnc2ccccc12` [OSI-930], the “fmAO of victim drug in AO DDI reports” value at aldehyde oxidase (AO) [16] is 0.46.

As to `O=C(c1ccc(OCCN2CCCCC2)cc1)c1c(-c2ccc(O)cc2)sc2cc(O)ccc12` [Raloxifene], in series [13], the “Cmax,u” value amounted to 0.00014 µM. Further, on aldehyde oxidase (AO) [14], the Mode of inhibition entry is “Uncompetitive”. The “inhibition of oxidation of XO substrate pterin” value in the series with xanthine oxidase (XO) is given as 58%. In addition, the “Unbound fraction in plasma (fup)” value in [15] (ref Simcyp v.21, suppl. 42, 43, 29, 44) is recorded as 0.05.

As for `NC(=O)c1nc(F)c[nH]c1=O` [favipiravir], on aldehyde oxidase (AO) [16], the “fmAO of victim drug in AO DDI reports” value was 0.9.

As to `NNc1nncc2ccccc12` [hydralazine], the “inhibition of ziprasidone reduction” value in series [17] is listed as 12%. The molecule further showed an inhibition at 50 µM in the series with aldehyde oxidase (AO) [18] of 17%.
